Test results published in ChEMBL document CHEMBL1140501, “Validation of an automated procedure for the prediction of relative free energies of binding on a set of aldose reductase inhibitors” (Bioorg Med Chem, 2007).

biological target: Aldo-keto reductase family 1 member B1 (Homo sapiens, UniProt P15121); test: Inhibition of aldose reductase

| IC50 [nM] | SMILES |
| --- | --- |
| 56.5 | O=C(O)Cc1nn(Cc2ccc(Br)cc2F)c(=O)c2ccccc12 [PONALRESTAT] |
| 176 | O=C(O)COc1ccccc1C(=O)NCc1ccc(Br)cc1F |
| 30 | O=C(O)COc1cc(F)ccc1C(=S)NCc1ccc(Br)cc1F |
| 3.1 | O=C(O)Cc1nn(Cc2nc3ccc(C(F)(F)F)cc3s2)c(=O)c2ccccc12 |
| 4400 | O=C(O)Cc1c(Cl)cccc1Cl |
| 108 | Cc1ccccc1CC(=O)Nc1cc(C)c(S(=O)(=O)NCC(=O)O)c(C)c1 |
| 15 | O=C1C[C@@]2(C(=O)N1)C(=O)N(Cc1ccc(Br)cc1F)C(=O)c1cccn12 |
| 44 | O=C(O)Cn1c(=O)n(Cc2ccc(Br)cc2F)c(=O)c2ccc(Cl)cc21 [ZENARESTAT] |
| 190 | O=C1C[C@]2(C(=O)N1)C(=O)N(Cc1ccc(Br)cc1F)C(=O)c1cccn12 |

| SMILES | IC50 [nM] |
| --- | --- |
| O=C(O)Cc1ccccc1 [PHENYLACETIC ACID] | 96000 |
